Results taken from patent publication US11576987B2, “Compositions and methods of treating melanoma” (UNIVERSITY OF IOWA RESEARCH FOUNDATION, priority 2016, dated 2023).
Where a name gives a salt, the structure may show the parent alone.

System: MC1R expression
Assay: Real-time PCR analysis of MC1R expression in melanoma cells
Format: cell-based, human
Details: substantiated by flow cytometry and radiopeptide binding
Protocol: FIG. 10. Real-time PCR analysis of MC1R expression in A2058 and MEWO melanoma cells. A2058 cells were exposed to BRAFi GSK2118436, MEKi GSK1120212 and HDACi PBA for 24 h. Similarly, MEWO cells were treated with PBA and SAHA. Total RNA was isolated and reverse transcripted to cDNA. Real-time PCR was performed using 50 ng of each cDNA sample with labeled primer VIC-MC1R and FAM-NADPH. mRNA fold changes were calculated by ΔΔCt method and expressed as (n=3; Mean±SEM).
qPCR measurements are included to measure the change in MCR1 mRNA with changes in the concentration and incubation time for each drug and combinations (FIG. 10). These experiments are carried out as in FIG. 10 according to manufacturers' protocols, cells are seeded into 6-well plates until ˜80% confluent. After drug treatments, total RNA is isolated (Qiagen RNeasy Mini Kit). 1 μg of total RNA from each cell sample is used for reverse transcription using a high capacity reverse transcription kit (Applied Biosystem). cDNA samples are kept at −80° C. until use. Upon use, cDNA templates are employed in the qRT-PCR using a Taqman Gene Expression Assay for human MC1R (Assay ID: Hs00267167_s1). Human 18S (Assay ID: Hs99999901_s1) and human GAPDH (Assay ID: Hs03929097_g1) are used as housekeeping gene controls. […] Reactions are carried out in Applied Biosystem 7900HT. mRNA level is calculated by comparative ΔΔCt method.

## O=C(O)CCCc1ccccc1 [PBA, 4-phenylbutyric acid, sodium salt]
  MCR1 expression by RT-PCR: Enhanced expression of MCR1
